According to US12527775B2 (priority 2020, dated 2026):
Read-outs that look alike come from different tables or passages of the source.

Assays:
[1] = biological target: human recombinant 5-HT2A receptor (Homo sapiens (Human), UniProt P28223); assay: biochemical; type: binding
Procedure: Test Example 1: 5-HT2A Receptor Binding Inhibition Test
(Each Experimental Condition)
Cell membrane: 15 μg of Jump-In HEK cell membrane (expressing human recombinant 5-HT2A receptor) per well
Assay buffer: Tris-HCl 50 mmol/L (pH 7.4) containing NaCl 120 mmol/L, MgCl2·6H2O 1 mmol/L, KCl 5 mmol/L, 0.1% BSA and CaCl2 2 mmol/L
Radioactive ligand: [^3H]-Ketanserin with a final concentration of 3 nmol/L
(§1) Non-specific ligand: Serotonin HCl with a final concentration of 500 μmol/L
(§2) The Kd value was calculated when the lot of cell membrane was changed. […] The radioactive ligand solution was serially diluted from 16 nM at a 2-fold ratio and the count was confirmed with a liquid scintillator. […] After that, filtration was performed with Cell harvester (PerkinElmer). The radioactive ligand solution was dispensed into an empty well of the GF/B UniFilter plate at 10 μL/well. […] The GF/B UniFilter plate was allowed to stand overnight at room temperature. […] The Saturation curve was drawn from the measured value, and the Kd value was calculated from the slope of the Scatchard Plot.
(§3) (Binding Test of the Compound According to the Present Invention)
(§4) After that, filtration was performed with Cell harvester (PerkinElmer).

[2] = biological target: human recombinant 5-HT2C receptor (Homo sapiens (Human), UniProt P28335); assay: biochemical; type: binding
Sequence of human recombinant 5-HT2C receptor (P28335 whole entry, looked up): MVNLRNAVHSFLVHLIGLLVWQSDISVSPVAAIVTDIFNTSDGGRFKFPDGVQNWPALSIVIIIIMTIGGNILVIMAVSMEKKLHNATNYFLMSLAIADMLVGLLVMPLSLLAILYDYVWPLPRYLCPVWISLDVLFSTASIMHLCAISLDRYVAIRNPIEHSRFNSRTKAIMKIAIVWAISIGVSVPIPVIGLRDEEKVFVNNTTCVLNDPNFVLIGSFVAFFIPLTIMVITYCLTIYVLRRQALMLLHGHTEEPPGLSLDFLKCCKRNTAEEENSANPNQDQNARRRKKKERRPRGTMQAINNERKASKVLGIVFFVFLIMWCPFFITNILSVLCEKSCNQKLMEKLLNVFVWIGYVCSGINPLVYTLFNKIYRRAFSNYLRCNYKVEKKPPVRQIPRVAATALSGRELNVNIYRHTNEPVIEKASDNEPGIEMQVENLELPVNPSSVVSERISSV
Procedure: Test Example 2: 5-HT2C Receptor Binding Inhibition Test
(Each experimental condition)
Cell membrane: 0.5 μg of Jump-In HEK cell membrane (expressing human recombinant 5-HT2C receptor) per well
Assay buffer: Tris-HCl 50 mmol/L (pH 7.4) containing NaCl 120 mmol/L, MgCl2·6H2O 1 mmol/L, KCl 5 mmol/L, 0.1% BSA and CaCl2) 2 mmol/L
Radioactive ligand: [^3H]-Mesulergine with a final concentration of 1 nmol/L
as §1, §2, §3, §4

[3] = [3H]-Ketanserin 3 nmol/L, Jump-In HEK cell membrane, read-out: human serotonin 5-HT2A receptor binding activity, Ki
[4] = [3H]-Mesulergine 1 nmol/L, Jump-In HEK cell membrane, read-out: human serotonin 5-HT2C receptor binding activity, Ki
[5] = [3H]-Ketanserin 3 nmol/L, Jump-In HEK cell membrane, class symbols, read-out: h-5-HT2A Ki
[6] = human serotonin 5-HT2C receptor binding, [3H]-Mesulergine, read-out: h-5-HT2C Ki

For `CC(C)COc1ccc(CNC(=O)N(Cc2ccc(F)c3ccoc23)C2CCN(C)CC2)cc1` [Compound I-071], the Ki [1, 3] was 0.0133 µM and the Ki [2, 4] was 0.0607 µM.

`CN1CCC(N(Cc2ccc(F)cn2)C(=O)NCc2ccc(Cl)cc2)CC1` [Compound I-084] showed a Ki [1, 3] of 0.00561 µM and a Ki [2, 4] of 0.0652 µM.

Compound `CC(C)COc1ccc(CNC(=O)N(Cc2cn(C)c3cccnc23)C2CCN(C)CC2)cc1` [Compound I-074] has a Ki [1, 5] of 0.01 to 0.1 µM and a Ki [2, 6] of 0.01 to 0.1 µM.

With `CN1CCC(N(Cc2ccn(C)n2)C(=O)NCc2ccc(OCC3CC3)cc2)C2(CC2)C1` (racemic) [Compound I-110] the Ki [1, 5] was less than 0.01 µM and the Ki [2, 6] was less than 0.01 µM.

`C[C@H](F)COc1ccc(CNC(=O)N(Cc2ccc(F)cn2)C2CCN(C)CC2)cc1` [Compound I-097] showed a Ki [1, 5] of less than 0.01 µM and a Ki [2, 6] of 0.01 to 0.1 µM.

With `COc1ccc(CNC(=O)N(Cc2ccc(F)cn2)C2CCN(C)CC23CC3)cc1` (racemic) [Compound I-099] the Ki [1] was less than 0.01 µM and the Ki [2] was less than 0.01 µM.

For `CC(C)CNc1ccc(CNC(=O)N(Cc2ccc(F)cn2)C2CCN(C)CC2)cc1` [Compound I-112], the Ki [1, 5] was less than 0.01 µM and the Ki [2, 6] was less than 0.01 µM.

`CN1CCC(N(Cc2ccc(F)cn2)C(=O)NCc2ccc(OCC(C)(F)F)cc2)CC1` [Compound I-092] gave a Ki [1, 5] of less than 0.01 µM and a Ki [2, 6] of less than 0.01 µM.

With `CC(C)COc1ccc(CNC(=O)N(Cc2ccc(F)c3cc[nH]c23)C2CCN(C)CC2)cc1` [Compound I-081] the Ki [1, 5] was greater than 0.1 µM and the Ki [2, 6] was greater than 0.1 µM.

In the case of `C[C@@H](F)COc1ccc(CNC(=O)N(Cc2ccc(F)cn2)C2CCN(C)CC2)cc1` [Compound I-098], the Ki [1, 5] is reported as less than 0.01 µM and the Ki [2, 6] is reported as 0.01 to 0.1 µM.

`Cc1ccc(CNC(=O)N(Cc2cc(C)n(C)n2)C2CCN(C)CC23CC3)cc1` (racemic) [Compound I-105] gave a Ki [1, 5] of less than 0.01 µM and a Ki [2, 6] of less than 0.01 µM.

With `CC(C)COc1ccc(CNC(=O)N(Cc2ccn(C(F)F)n2)C2CCN(C)CC2)cc1` [Compound I-118] the Ki [1, 5] was less than 0.01 µM and the Ki [2, 6] was 0.01 to 0.1 µM.

With `CC(C)COc1ccc(CNC(=O)N(Cc2ccn(C)n2)C2CCN(C)CC2)cc1` [Compound I-021] the Ki [1, 3] was 0.000858 µM and the Ki [2, 4] was 0.0507 µM.

In the case of `CC(C)COc1ccc(CNC(=O)N(Cc2ncc(O)cc2F)C2CCN(C)CC2)cc1` [Compound I-077], the Ki [1, 5] is reported as 0.01 to 0.1 µM and the Ki [2, 6] is reported as greater than 0.1 µM.

In the case of `CC(C)COc1ccc(CNC(=O)N(Cc2ccc(F)cn2)[C@H]2CCN(C)C[C@@H]2O)cc1` (racemic) [Compound I-088], the Ki [1, 3] is reported as 0.0257 µM and the Ki [2, 4] is reported as 0.134 µM.

In the case of `CC(C)COc1ccc(CNC(=O)N(Cc2ccn(C)c2)[C@@H]2CCNC[C@@H]2F)cc1` (racemic) [Compound I-093], the Ki [1, 5] is reported as less than 0.01 µM and the Ki [2, 6] is reported as less than 0.01 µM.

Compound `CCCOc1ccc(CNC(=O)N(Cc2cc(C)n(C)n2)[C@H]2CCNC[C@H]2F)cc1` [Compound I-123] has a Ki [1, 5] of less than 0.01 µM and a Ki [2, 6] of 0.01 to 0.1 µM.

`CN1CCC(N(Cc2ccc(F)cn2)C(=O)NCc2ccc(OCC(F)(F)C(F)F)cc2)CC1` [Compound I-117] was tested, and the Ki [1, 5] was less than 0.01 µM and the Ki [2, 6] was less than 0.01 µM.

In the case of `CN1CCC(N(Cc2ccn(C)n2)C(=O)NCc2ccc(OC(F)F)cc2)C2(CC2)C1` (racemic) [Compound I-111], the Ki [1, 5] is reported as less than 0.01 µM and the Ki [2, 6] is reported as less than 0.01 µM.

For `CN1CCC(N(Cc2ccc(F)cn2)C(=O)NCc2ccc(OC3CC3)cc2)CC1` [Compound I-113], the Ki [1, 5] was less than 0.01 µM and the Ki [2, 6] was 0.01 to 0.1 µM.

`CN1CCC(N(Cc2ccc(F)cn2)C(=O)NCc2cccc(O)c2)CC1` [Compound I-075] showed a Ki [1, 3] of 0.13 µM and a Ki [2, 4] of 1.31 µM.

`CCCOc1ccc(CNC(=O)N(Cc2ccc(F)cn2)[C@H]2CCNC[C@H]2F)cc1` [Compound I-119] gave a Ki [1, 5] of less than 0.01 µM and a Ki [2, 6] of less than 0.01 µM.

`CN1CCC(N(Cc2ccc(F)cn2)C(=O)NCc2ccc(N(C)C)cc2)CC1` [Compound I-121] showed a Ki [1, 5] of 0.01 to 0.1 µM and a Ki [2, 6] greater than 0.1 µM.

`CC(C)CN(C)c1ccc(CNC(=O)N(Cc2ccc(F)cn2)[C@H]2CCN(C)C[C@H]2F)cc1` [Compound I-147] was tested, and the Ki [1, 3] was 0.000758 µM and the Ki [2, 4] was 0.00212 µM.

Compound `CCCOc1ccc(CNC(=O)N(Cc2cc(C)n(C)n2)C2CCN(C)CC23CC3)cc1` (racemic) [Compound I-109] has a Ki [1, 5] of less than 0.01 µM and a Ki [2, 6] of less than 0.01 µM.

`CC(C)COc1ccc(CNC(=O)N(Cc2ccc(F)cn2)C2CCN(C)C(CO)C2)cc1` (stereo not shown) [Compound I-089] gave a Ki [1, 5] of less than 0.01 µM and a Ki [2, 6] of 0.01 to 0.1 µM.
